Literature values as cited in patent publication US12466814B2, “Sterically shielded heptamethine cyanine dyes” (UNIVERSITY OF NOTRE DAME DU LAC, priority 2020, dated 2025).

How the values were obtained:
[1] = PBS pH 7.4, cited from earlier work; for ε: reported data; for λabs max / λem max: spectral data from reference
[2] = meso linkage is not cleaved by biological amines or thiols; cited from earlier work
[3] = known from literature; cited from earlier work
[4] = cited from earlier work; for QY / Brightness (fluorescence brightness = ε × QY): PBS pH 7.4; for QY: data from reference; for Brightness (fluorescence brightness = ε × QY) / Quantum yield: reported data; for Quantum yield: pH 7.4 PBS

Row | SMILES | ε [1] | λabs max [1] [nm] | λem max [1] [nm] | Stable to nucleophiles [2] | Change in serum under very similar conditions [3] | QY [4] | Brightness (fluorescence brightness = ε × QY) [4] | Quantum yield [4] [%]
1 | CC1(C)C(/C=C/C2=C(Oc3ccc(S(=O)(=O)O)cc3)C(=C/C=C3/N(CCCCS(=O)(=O)O)c4ccc(S(=O)(=O)[O-])cc4C3(C)C)/CCC2)=[N+](CCCCCC(=O)O)c2ccc(S(=O)(=O)O)cc21 [CW800] | 242,000 M^−1cm^−1 | 775 | 796 | No | degradation | 0.090 | 22,000 | 9.0
2 | CC1(C)C(/C=C/C2=C(Oc3ccc(CCC(=O)O)cc3)C(=C/C=C3/N(CCC[N+](C)(C)C)c4ccc(S(=O)(=O)O)cc4C3(C)C)/CCC2)=[N+](CCC[N+](C)(C)C)c2ccc(S(=O)(=O)O)cc21 [ZW800-1] | 246,000 M^−1cm^−1 | 770 | 788 | No | degradation | 0.135 | 33,000 | 13.5
